Data as given in patent publication US9266870B2 (TAISHO PHARMACEUTICAL CO., LTD., priority 2012, dated 2016).
Where two headings read alike, the source gives them in different places.

What was measured:
[1] = target: human orexin-2 receptor (hOX2R) (Homo sapiens (Human), UniProt O43614); assay: Measurement of orexin antagonistic activity (intracellular Ca2+ fluorescence, FDSS), hOX2R; assay type: cell-based; details: CHO cells forcibly expressing hOX2R; ligand peptide (modified human orexin-A) 3 nM; maximum fluorescence intensity; read-out: IC50 Value OX2
Description: (§1) The antagonistic activities of the test compounds on human orexin-1 receptor (hOX1R) and orexin-2 receptor (hOX2R) were measured by modifying from the method described in literature (Toshikatsu Okumura et al., Biochemical and Biophysical Research Communications 280, 976-981, 2001). Chinese hamster ovary (CHO) cells forcibly expressing the hOX1R and hOX2R were seeded into a 96 well Black clear bottom plate (Nunc) at 20,000 cells per well, which were cultured in Ham's F-12 medium containing 0.1 mM MEM non-essential amino acids, 0.5 mg/ml G418, 10% fetal bovine serum (all by Invitrogen) for 16 hours under the conditions of 37° C., 5% CO2. After removing the medium, 100 μL of 0.5 μM Fluo-4AM ester (Dojin) in an assay buffer (25 mM HEPES (Dojin), Hank's balanced salt solution (Invitrogen), 0.1% bovine serum albumin, 2.5 mM probenecid, 200 μg/ml Amaranth (all by Sigma-Aldrich), pH 7.4) was added and the cells were incubated for 60 minutes at 37° C., 5% CO2. After removing the assay buffer containing […] ester, the test compound was dissolved in dimethyl sulfoxide to be 10 mM and diluted with the assay buffer, 150 μL of which was added and incubated for 30 minutes.
(§2) The reaction was measured for the fluorescence intensity of each well every second for 3 minutes using Functional Drug Screening System (FDSS; Hamamatsu Photonics K.K.), and the antagonistic activity was determined using the maximum fluorescence intensity as the indicator of intracellular Ca2+ concentration.

[2] = target: human orexin-1 receptor (hOX1R) (Homo sapiens (Human), UniProt O43613); assay: Measurement of orexin antagonistic activity (intracellular Ca2+ fluorescence, FDSS), hOX1R; assay type: cell-based; details: ligand peptide (modified human orexin-A) 300 pM, maximum fluorescence intensity
Description: as §1, with “Chinese” for “The antagonistic activities of the test compounds on human orexin-1 receptor (hOX1R) and orexin-2 receptor (hOX2R) were measured by modifying from the method described in literature (Toshikatsu Okumura et al., Biochemical and Biophysical Research Communications 280, 976-981, 2001). Chinese”
as §2

[3] = CHO cells forcibly expressing hOX1R, read-out: IC50 Value OX1

human orexin-1 receptor (hOX1R), sequence (O43613 whole entry): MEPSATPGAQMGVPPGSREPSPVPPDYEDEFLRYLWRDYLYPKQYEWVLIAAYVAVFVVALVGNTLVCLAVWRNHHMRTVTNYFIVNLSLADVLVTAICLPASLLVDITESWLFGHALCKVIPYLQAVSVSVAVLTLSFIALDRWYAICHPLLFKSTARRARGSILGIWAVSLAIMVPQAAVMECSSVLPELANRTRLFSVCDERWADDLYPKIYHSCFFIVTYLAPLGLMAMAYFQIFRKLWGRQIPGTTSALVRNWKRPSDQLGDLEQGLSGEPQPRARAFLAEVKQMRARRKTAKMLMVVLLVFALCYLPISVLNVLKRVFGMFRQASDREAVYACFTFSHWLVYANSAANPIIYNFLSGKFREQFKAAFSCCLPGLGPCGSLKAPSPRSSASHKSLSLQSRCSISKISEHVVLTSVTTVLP
human orexin-2 receptor (hOX2R), sequence (O43614 whole entry): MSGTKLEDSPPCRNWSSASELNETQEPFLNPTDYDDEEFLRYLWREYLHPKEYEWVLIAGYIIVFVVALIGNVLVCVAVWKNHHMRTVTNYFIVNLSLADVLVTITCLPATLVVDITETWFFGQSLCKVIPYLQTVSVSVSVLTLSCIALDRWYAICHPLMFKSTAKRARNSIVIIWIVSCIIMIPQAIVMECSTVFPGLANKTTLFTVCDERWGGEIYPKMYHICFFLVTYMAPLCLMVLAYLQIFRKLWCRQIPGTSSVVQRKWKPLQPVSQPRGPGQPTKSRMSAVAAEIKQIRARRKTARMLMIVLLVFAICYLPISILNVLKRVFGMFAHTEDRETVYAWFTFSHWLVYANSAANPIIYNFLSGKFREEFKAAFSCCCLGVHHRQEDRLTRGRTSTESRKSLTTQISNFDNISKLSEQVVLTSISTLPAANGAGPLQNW

Row | IC50 [1] [nM] | IC50 [2, 3] [nM] | SMILES | IC50 ([2]; IC50 Value OX1, CHO cells forcibly expressing hOX1R) [nM]
1 | 252 | 17.5 | O=C(c1ccccc1-n1nccn1)N1CCOC1Cn1ccc(-c2ccc(F)cn2)n1 (racemic) [Example 11, (±)-(2-{[3-(5-Fluoropyridin-2-yl)-1H-pyrazol-1-yl]methyl}-1,3-oxazolidin-3-yl)[2-(2H-1,2,3-triazol-2-yl)phenyl]methanone] | 
2 | 171 |  | O=C(c1cc(F)ccc1-n1nccn1)N1CCOC1Cn1ccc(-c2ccc(F)cn2)n1 (racemic) [Example 12, (±)-(2-[[3-(5-fluoropyridin-2-yl)-1H-pyrazol-1-yl]methyl]-1,3-oxazolidin-3-yl) [5-fluoro-2-(2H-l,2,3-triazol-2-yl)phenyl]methanone] | 
3 | 71.7 | 28.9 | O=C(c1cc(F)ccc1-c1ncccn1)N1CCOC1Cn1ccc(-c2ccc(F)cn2)n1 (racemic) [Example 16, (±)-(2-[[3-(5-fluoropyridin-2-yl)-1H-pyrazol-1-yl]methyl]-1,3-oxazolidin-3-yl) [5-fluoro-2-(pyrimidin-2-yl)phenyl]methanone] | 
4 |  | 5.1 | Cc1ccc(-n2nccn2)c(C(=O)N2CCOC2Cn2ccc(-c3ccc(F)cc3)n2)c1 (racemic) [Example 17, (±)-(2-[[3-(4-fluorophenyl)-1H-pyrazol-1-yl]methyl]-1,3-oxazolidin-3-yl)[5-methyl-2-2H-1,2,3-triazol-2-yl) phenyl]methanone] | 
5 | 192 | 26.4 | O=C(c1ccccc1-n1nccn1)N1CCOC1Cn1ccc(-c2ccc(F)cc2)n1 (racemic) [Example 18, (±)-(2-[[3-(4-fluorophenyl)-1H-pyrazol-1-yl]methyl]-1,3-oxazolidin-3-yl)[2-(2H-1,2,3-triazol-2-yl)phenyl] methanone] | 
6 | 233 | 76.8 | O=C(c1cc(F)ccc1-n1nccn1)N1CCOC1Cn1ccc(-c2ccc(F)cc2)n1 (racemic) [Example 19, (±)-(2-[[3-(4-fluorophenyl)-1H-pyrazol-1-yl]methyl]-1,3-oxazolidin-3-yl)[5-fluoro-2-(2H-1,2,3-triazol-2-yl)phenyl]methanone] | 
7 | 26.7 |  | Cc1ccc(-c2ncccn2)c(C(=O)N2CCOC2Cn2cc(-c3ccc(F)cc3)cn2)c1 (racemic) [Example 24, (±)-(2-[[4-(4-fluorophenyl)-1H-pyrazol-1-yl]methyl]-1,3-oxazolidin-3-yl)[5-methyl-2-(pyrimidin-2-yl)phenyl]methanone] | 
8 |  | 4.9 | Cc1ccc(-n2nccn2)c(C(=O)N2CCOC2Cn2ccc(-c3ccc(F)cn3)n2)c1 (single isomer, unassigned; (-)) [Example 1, (−)-(2-{[3-(5-Fluoropyridin-2-yl)-1H-pyrazol-1-yl]methyl}-1,3-oxazolidin-3-yl)[5-methyl-2-(2H-1,2,3-triazol-2-yl)phenyl]methanone] | 
9 |  | 9.6 | Cc1ccc(-n2nccn2)c(C(=O)N2CCCOC2Cn2cc(-c3ccc(F)cn3)cn2)c1 (single isomer, unassigned; (-)) [Example 4, (−)-(2-[[4-(5-fluoropyridin-2-yl)-1H-pyrazol-1-yl]-methyl]-1,3-oxazinan-3-yl)[5-methyl-2-(2H-1,2,3-triazol-2-yl)phenyl] methanone] | 
10 |  |  | Cc1ccc(-n2nccn2)c(C(=O)N2CCCOC2Cn2cc(-c3ccc(F)cc3)cn2)c1 (single isomer, unassigned; (-)) [Example 35, (−)-[2-[[4-(4-fluorophenyl)-1H-pyrazol-1-yl]methyl]-1,3-oxazinan-3-yl][5-methyl-2-(2H-1,2,3-triazol-2-yl)phenyl]methanone] | 0.8
11 |  | 8.3 | Cc1ccc(-n2nccn2)c(C(=O)N2CC(C)COC2Cn2cc(-c3ccc(F)cn3)cn2)c1 (single isomer, unassigned; (-)) [Example 40, (−)-[(2S*,5S*)-2-{[4-(5-Fluoropyridin-2-yl)-1H-pyrazol-1-yl]methyl}-5-methyl-1,3-oxazinan-3-yl][5-methyl-2-(2H-1,2,3-triazol-2-yl)phenyl]methanone] | 
12 |  | 2.6 | Cc1ccc(-c2ncccn2)c(C(=O)N2CCCOC2Cn2cc(-c3ccc(F)cc3)cn2)c1 (single isomer, unassigned; (-)) [Example 43, (−)-[2-[[4-(4-fluorophenyl)-1H-pyrazol-1-yl]methyl]-1,3-oxazinan-3-yl][5-methyl-2-(pyrimidin-2-yl)phenyl]methanone] | 
13 |  | 60.4 | O=C(c1cc(F)ccc1-c1ncccn1)N1CCCOC1Cc1cnn(-c2ccc(F)cn2)c1 (single isomer, unassigned; (-)) [Example 44, (−)-[2-[[1-(5-fluoropyridin-2-yl)-1H-pyrazol-4-yl]methyl]-1,3-oxazinan-3-yl] [5-fluoro-2-(pyrimidin-2-yl)phenyl]methanone] | 
14 |  | 3.4 | Cc1ccc(-n2nccn2)c(C(=O)N2CCCOC2Cc2cnn(-c3ccc(F)cn3)c2)c1 (single isomer, unassigned; (-)) [Example 47, (−)-[2-{[1-(5-Fluoropyridin-2-yl)-1H-pyrazol-4-yl]methyl}-1,3-oxazinan-3-yl][5-methyl-2-(2H-1,2,3-triazol-2-yl)phenyl]methanone] | 
15 |  | 0.8 | Cc1ccc(-n2nccn2)c(C(=O)N2CC(C)COC2Cn2cc(-c3ccc(F)cn3)cn2)c1 (single isomer, unassigned; (-)) [Example 49, (−)-[(2S*,5R*)-2-{[4-(5-Fluoropyridin-2-yl)-1H-pyrazol-1-yl]methyl}-5-methyl-1,3-oxazinan-3-yl][5-methyl-2-(2H-1,2,3-triazol-2-yl)phenyl]methanone] | 
16 |  | 86 | Cc1ccc(-n2nccn2)c(C(=O)N2C[C@H](C)O[C@H]2Cn2cc(-c3ccc(F)cn3)cn2)c1 [Example 5, (−)-[(2S,5S)-2-{[4-(5-Fluoropyridin-2-yl)-1H-pyrazol-1-yl]methyl}-5-methyl-1,3-oxazolidin-3-yl][5-methyl-2-(2H-1,2,3-triazol-2-yl)phenyl]methanone] | 
17 |  | 27.5 | Cc1ccc(-n2nccn2)c(C(=O)N2C[C@@H](C)O[C@H]2Cn2cc(-c3ccc(F)cn3)cn2)c1 [Example 6, (−)-[(2S,5R)-2-[[4-(5-fluoropyridin-2-yl)-1H-pyrazol-1-yl]methyl]-5-methyl-1,3-oxazolidin-3-yl] [5-methyl-2-(2H-1,2,3-triazol-2-yl)phenyl] methanone] | 
18 |  | 7.2 | Cc1ccc(-n2nccn2)c(C(=O)N2[C@H](C)CO[C@H]2Cn2ccc(-c3ccc(F)cn3)n2)c1 [Example 7, [(2S,4R)-2-[[3-(5-fluoropyridin-2-yl)-1H-pyrazol-1-yl]-methyl]-4-methyl-1,3-oxazolidin-3-yl] [5-methyl-2-(2H-1,2,3-triazol-2-yl)phenyl] methanone] | 
19 |  | 23.4 | Cc1ccc(-n2nccn2)c(C(=O)N2[C@H](Cn3ccc(-c4ccc(F)cn4)n3)OC[C@@H]2C)c1 [Example 9, (−)-[(2S,4S)-2-[[3-(5-fluoropyridin-2-yl)-1H-pyrazol-1-yl]-methyl]-4-methyl-1,3-oxazolidin-3-yl] [5-methyl-2-(2H-1,2,3-triazol-2-yl)phenyl] methanone] | 

Row | SMILES | IC50 [1] [nM] | IC50 [2, 3] [nM] | IC50 ([2]; IC50 Value OX1, CHO cells forcibly expressing hOX1R) [nM]
20 | Cc1ccc(-n2nccn2)c(C(=O)N2CCOC2Cn2ccc(-c3ccc(F)cn3)n2)n1 (racemic) [Example 13, (±)-(2-[[3-(5-fluoropyridin-2-yl)-1H-pyrazol-1-yl]methyl]-1,3-oxazolidin-3-yl) [6-methyl-3-(2H-l,2,3-triazol-2-yl)pyridin-2-yl] methanone] | 251 | 121 | 
